Assay results as given in article PMC6240685, “Strong Inhibitory Effect, Low Cytotoxicity and High Plasma Stability of Steroidal Inhibitors of N-Methyl-D-Aspartate Receptors With C-3 Amide Structural Motif” (Frontiers in Pharmacology, 2018).

Key:
[1] = test system: GABARs; assay: Inhibition of native GABAR responses in cultured hippocampal neurons; type: cell-based, rat
Protocol: FIGURE 8 The effect of compound 6 on peak and steady-state responses of native NMDARs, AMPARs, and GABARs. (A) Examples of traces obtained from cultured hippocampal neurons. Compound 6 (10 μM) was pre-applied in the absence of agonists followed by co-application with NMDA (100 μM), AMPA (100 μM), and GABA (5 μM) (duration of agonist and steroid application is indicated by filled and open bars, respectively). (B) Bar graph represents the mean values of relative changes in the peak (black columns) and steady-state (red columns) responses of native NMDARs, AMPARs, and GABARs recorded in the continuous presence of 10 μM compound 6. Error bars represent SD from five independent measurements. Asterisks mark significance at the level of P < 0.05 (Paired t-test). […]
Electrophysiological experiments were performed on HEK293 cells transfected with plasmids encoding rat GluN1-1a/GluN2A-D and GFP genes as described previously, ([Petrovic et al., 2005]; [Cais et al., 2008]; [Korinek et al., 2010]) or on primary hippocampal neurons prepared from P0–P1 rats, plated on collagen/poly-D-lysine-coated glass coverslips at a density of ∼50,000 cells/cm^2, and grown in Neurobasal A medium with B27 Supplement (Gibco). […] Agonist-induced responses were low-pass filtered at 2 kHz, digitally sampled at 5 kHz, and analyzed with pClamp software version 10.5 (Molecular Devices). […]

[2] = Plasma stability, human plasma; type: in vitro ADME; conditions: human, plasma
Protocol: Then, 37.8 μL of stock solution was added to 1400 μL of human plasma, maintained at 37°C. Aliquots (50 μL) withdrawn at 0, 1, 4, 8, and 24 h were analyzed by HPLC. […] The supernatant was transferred to an autosampler vial and 1 μL was injected onto LC-MS system. The samples were analyzed with an Agilent 1260 HPLC (Agilent Technologies) coupled to ESI-TOF Agilent 6530 (Agilent Technologies) with Agilent Jet Stream Technology. Samples were separated on a Waters ACQUITY UPLC CSH Phenyl-Hexyl (100 × 2.1, 130 Å, 1.7 μm) at a flow rate 0.3 ml/min. […] The mass spectrometry instrument was operated in a negative ion mode with a voltage of +3.00 kV applied to the capillary. The temperature, the flow rate of the nitrogen drying gas, the pressure of the nitrogen nebulizing gas, and the flow rate of the sheath gas were set at 325°C, 10 l/min, 40 psi, 390°C, and 11 l/min, respectively. Results are represented as a percentage of a compound remaining in spiked human plasma.

With `C[C@@]12CCC[C@H]1[C@@H]1CC[C@@H]3C[C@H](NC(=O)[C@@H](N)CC(=O)O)CC[C@]3(C)[C@H]1CC2` [Compound 6, (S)-3-amino-4-(((3R,5R,8S,9S,10S,13S,14S)-10,13-dimethylhexadecahydro-1H-cyclopenta[a]phenanthren-3-yl)amino)-4-oxobutanoic acid] the IC50 ([1]; 5 μM GABA, hippocampal neurons) was 17 ± 0.2 µM, the “inhibition of steady-state vs peak response, GABARs” value ([1]; 10 μM compound present continuously, GABA 5 μM) was “more efficient inhibitor of tonically activated receptors at the steady–state” and the remaining at 8 h, 42.1 μg/mL [2] was 100%.
